In brackets after ≈: the same amount, converted by molar mass.

The text below walks through data of paper PMC6321124, “Hydrophilic Linear Peptide with Histidine and Lysine Residues as a Key Factor Affecting Antifungal Activity” (International Journal of Molecular Sciences, 2018).

Data set [1] concerns drug-resistant C. albicans strains (CCARM 14001, 14004, 14007, and 14020). It is filed as cell-based. Particulars: at 256 µM; CCARM 14001, 14004, 14007, 14020; data not shown.
The test system of data set [2] is C. albicans cells. As to the kind of experiment: Intracellular ROS (DCFH-DA, flow cytometry). The class given is cell-based. Conditions: peptides at MICs or 10 mM H2O2 for 6 h, DCFH-DA 20 min. On the procedure:
DCF fluorescence was measured using 5000 events/sample following excitation with a 488-nm wavelength laser and reading through a 525/40 biopass filter using a CytoFLEX flow cytometer.
(A flow cytometer gives signals particle by particle.)

Data set [3] relates to C. albicans cells. As to the kind of experiment: SYTOX Green uptake (flow cytometry). The class given is cell-based. Particulars: peptides at MICs for 30 min, 0.5 μM SYTOX Green pre-incubated 15 min. As for the experimental part: C. albicans cells were pre-incubated with 0.5 μM SYTOX Green for 15 min in the dark, incubated with the indicated peptides at MICs for 30 min, and then analyzed using a CytoFLEX flow cytometer (Beckman Coulter Inc., Brea, CA, USA).

In data set [4] the test system is C. albicans. Conditions: peptides at MICs for 6 h, measured at 550 nm.
The test system of data set [5] is C. parapsilosis (CCARM 14016). Particulars: CCARM 14016, 48 h, pH 6.
Data set [6] relates to C. albicans (CCARM 14004, fluconazole-resistant strain). Conditions: CCARM 14004, 48 h, pH 6.
For data set [7], the system named is C. gloeosporioides (KCTC 6169). Conditions: KCTC 6169, 48 h, pH 6.
Data set [8] concerns F. graminearum (KCTC 16656). Particulars: KCTC 16656, 48 h, pH 6.
The subject of data set [9] is Aspergillus flavus (KCTC 6905). Conditions: KCTC 6905, 48 h, pH 6.
Data set [10] has as its system Tricophyton rubrum (KCTC 6345). Conditions: KCTC 6345, 48 h, pH 6.
In data set [11] the test system is Trichoderma viride (KCTC 16992). Conditions: KCTC 16992, 48 h, pH 6.
The nature of data set [12]: Calcein leakage, artificial mammalian model membrane. Conditions: PC/Ch/SM (1:1:1) LUVs, 10 μM lipids. On the procedure:
The dried lipids were prehydrated with dye buffer solution (80 mM calcein, 10 mM MES, 50 mM NaCl, pH 6.2), vortexed for 1 min, and incubated for 30 min at 50 °C. The suspension was freeze-thawed in liquid nitrogen for nine cycles to generate large unilamellar vesicles (LUVs) and extruded 30 times through polycarbonate filters (two stacked 0.2-μm pore-size filters) using an Avanti Mini-Extruder (Avanti Polar Lipids Inc., Alabaster, AL, USA). Calcein-entrapped vesicles were separated from free calcein by gel filtration chromatography on a Sephadex G-50 column. Entrapped LUVs in suspensions containing 10 μM lipids were incubated with various concentrations of the peptide. The fluorescence of the released calcein was assessed with a microtiter SpectraMax M5 reader at an excitation wavelength of 480 nm and an emission wavelength of 520 nm. Complete (100%) release was achieved via the addition of Triton X-100 to a final concentration of 0.1% (v/v). The apparent percentage of calcein release was calculated in accordance with the following equation: Release (%) = 100 × (F − F0)/(Ft − F0) (2) where F and Ft represent the fluorescence intensity after the addition of the peptides and Triton X-100, respectively, and F0 represents the fluorescence of the intact vesicles.

Data set [13] relates to HaCaT cells. As to the kind of experiment: Cytotoxicity (MTT assay). The class given is cell-based. Particulars: at 3.13 µM, 24 h. A general note: Formazan colour is commonly taken as a measure of viable cells.
Data set [14] concerns C. albicans (CCARM 14020, fluconazole-resistant strain). Conditions: CCARM 14020, 48 h, pH 6.
The subject of data set [15] is C. krusei (CCARM 14017). Conditions: CCARM 14017, 48 h, pH 6.
In data set [16] the test system is F. solani (KCTC 6326). Particulars: KCTC 6326, 48 h, pH 6.
For data set [17], the system named is C. albicans (CCARM 14007, amphotericin B-resistant strain). Particulars: CCARM 14007, 48 h, pH 6.
Data set [18] has as its system F. oxysporum (KCTC 16909). Particulars: KCTC 16909, 48 h, pH 6.
In data set [19] the test system is Trichoderma virens (KCTC 16924). Particulars: KCTC 16924, 48 h, pH 6.
Data set [20] deals with C. albicans (KCTC 7270). Particulars: KCTC 7270, 48 h, pH 6.
The test system of data set [21] is F. moniliforme (KCTC 6149). Conditions: KCTC 6149, 48 h, pH 6.
The test system of data set [22] is C. albicans (CCARM 14001, fluconazole-resistant strain). Particulars: CCARM 14001, 48 h, pH 6.

On to `OC(Cn1cncn1)(Cn1cncn1)c1ccc(F)cc1F` [fluconazole], for which, in [1], the “antifungal activity against drug-resistant C. albicans strains” value is “inactive”.
With `OO` [H2O2], in [2], the “intracellular ROS generation” value is “high levels of ROS generation”.
On to histatin 5, for which the “SYTOX Green uptake (membrane permeabilization)” value in data set [3] is reported as “did not induce membrane damage”. In addition, the “relative cytochrome c levels in the cytosol” value in data set [4] is “only minor alterations”.
Broadly, the MIC is the least concentration at which growth counts as inhibited. Read a low MIC as inhibition by little substance. On to `CC[C@H](C)[C@H](NC(=O)CN)C(=O)NCC(=O)N[C@@H](C)C(=O)N[C@H](C(=O)N[C@@H](CC(C)C)C(=O)N[C@@H](CCCCN)C(=O)N[C@H](C(=O)N[C@@H](CC(C)C)C(=O)N[C@H](C(=O)N[C@H](C(=O)NCC(=O)N[C@@H](CC(C)C)C(=O)N1CCC[C@H]1C(=O)N[C@@H](C)C(=O)N[C@@H](CC(C)C)C(=O)N[C@H](C(=O)N[C@@H](CO)C(=O)N[C@@H](Cc1c[nH]c2ccccc12)C(=O)N[C@H](C(=O)N[C@@H](CCCCN)C(=O)N[C@@H](CCCNC(=N)N)C(=O)N[C@@H](CCCCN)C(=O)N[C@@H](CCCNC(=N)N)C(=O)N[C@@H](CCC(N)=O)C(=O)N[C@@H](CCC(N)=O)C(N)=O)[C@@H](C)CC)[C@@H](C)CC)[C@@H](C)O)[C@@H](C)O)C(C)C)C(C)C` [Melittin, melittin, reference compound], for which the MIC in [5] is listed as 8 µM (≈ 22.8 µg/mL); in data set [6] it was 8 µM (≈ 22.8 µg/mL); in data set [7], 16 µM (≈ 45.5 µg/mL); in data set [8], 8 µM (≈ 22.8 µg/mL); in data set [9] it was 8 µM (≈ 22.8 µg/mL); in [10], 8 µM (≈ 22.8 µg/mL). For the same compound, the MIC came to 4 µM (≈ 11.4 µg/mL) in [11]; 8 µM (≈ 22.8 µg/mL) in data set [14]; 8 µM (≈ 22.8 µg/mL) in [15]; 8 µM (≈ 22.8 µg/mL) in data set [16]; 8 µM (≈ 22.8 µg/mL) in data set [17]; 8 µM (≈ 22.8 µg/mL) in data set [18]. For the same compound, the minimum inhibitory concentration (MIC) in data set [19] worked out at 32 µM (≈ 91.1 µg/mL); in data set [20] it was 8 µM (≈ 22.8 µg/mL); in [21], 8 µM (≈ 22.8 µg/mL); in data set [22], 8 µM (≈ 22.8 µg/mL). Moreover, in [12], the “calcein leakage from mammalian artificial liposomes (in words)” value was “concentration-dependent calcein leakage”. For the same compound, the cell death in data set [13] is 100%.
